Experiments:
system Xc^− [1] = target: T1, system Xc^− (Homo sapiens, UniProt Q9UPY5); assay: Cystine-induced glutamate release assay; assay type: cell-based; parameters: endogenous in cells; host or cells: H4 cells; conditions: H4 cells, sodium-free HEPES buffer, 50 μM L-Cystine, 2 hours, Amplex Red glutamate readout; for IC50: read-out: pIC50 Cystine-induced glutamate release assay (converted)
T1 sequence (Q9UPY5 1-501): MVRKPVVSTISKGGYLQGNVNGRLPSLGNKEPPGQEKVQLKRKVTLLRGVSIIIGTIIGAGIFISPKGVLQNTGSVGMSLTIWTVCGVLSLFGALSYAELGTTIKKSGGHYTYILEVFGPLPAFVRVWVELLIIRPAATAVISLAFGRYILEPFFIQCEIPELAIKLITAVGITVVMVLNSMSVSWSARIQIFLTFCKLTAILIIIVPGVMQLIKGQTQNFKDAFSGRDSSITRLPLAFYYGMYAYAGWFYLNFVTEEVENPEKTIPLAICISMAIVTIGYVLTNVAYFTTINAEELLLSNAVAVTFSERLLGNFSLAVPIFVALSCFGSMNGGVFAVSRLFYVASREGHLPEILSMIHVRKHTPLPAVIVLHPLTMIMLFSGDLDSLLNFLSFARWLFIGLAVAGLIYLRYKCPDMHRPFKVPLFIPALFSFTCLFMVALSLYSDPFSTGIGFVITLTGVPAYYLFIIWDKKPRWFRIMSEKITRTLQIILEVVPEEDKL
T1 sequence (P08195 1-529 partner): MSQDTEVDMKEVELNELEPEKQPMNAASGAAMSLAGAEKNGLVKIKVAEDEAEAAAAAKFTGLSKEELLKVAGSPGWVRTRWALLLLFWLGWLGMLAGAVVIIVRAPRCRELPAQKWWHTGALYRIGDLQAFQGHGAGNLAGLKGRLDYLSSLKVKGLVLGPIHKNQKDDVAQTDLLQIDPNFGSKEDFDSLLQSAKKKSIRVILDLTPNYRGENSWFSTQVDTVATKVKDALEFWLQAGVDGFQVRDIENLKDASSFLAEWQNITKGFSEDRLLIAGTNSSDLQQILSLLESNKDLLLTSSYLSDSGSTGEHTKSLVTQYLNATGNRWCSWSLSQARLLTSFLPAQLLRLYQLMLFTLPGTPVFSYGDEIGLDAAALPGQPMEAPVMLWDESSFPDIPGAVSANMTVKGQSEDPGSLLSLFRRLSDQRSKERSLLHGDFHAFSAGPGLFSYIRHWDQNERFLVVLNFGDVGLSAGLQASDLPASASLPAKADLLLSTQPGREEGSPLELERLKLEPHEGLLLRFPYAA
Method in brief: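 H4 cells in sodium-free HEPES buffer (pH 7.4), 2 days after plating; glutamate release induced with 50 μM L-cystine plus compound (1% DMSO), 2 h at 37 °C. Supernatant glutamate measured by Amplex Red fluorescence; IC50/pIC50 derived between 1% DMSO and 50 μM erastin controls.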

system Xc^− [2] = target: T1, system Xc^−; assay: [^14C]L-Cystine uptake assay; assay type: cell-based; parameters: endogenous in cells; host or cells: H4 cells; conditions: H4 cells, sodium-free HEPES buffer, 0.5 μM L-[14C]Cystine and 4.5 μM L-Cystine, 1 hour at 37° C.; for IC50: read-out: pIC50 [^14C] L-Cystine uptake assay (converted)
Method in brief: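 H4 cells at 5×10^4 cells/well in sodium-free HEPES buffer were preincubated 15 min with compounds (1% DMSO). Uptake of 0.5 μM [14C]L-cystine plus 4.5 μM unlabelled L-cystine ran 1 hour at 37° C on scintillating plates. IC50 was set between 1% DMSO and 50 μM Erastin controls and expressed as pIC50.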

| Compound | IC50 (system Xc^− [1]) [nM] | IC50 (system Xc^− [2]) [nM] | pIC50 Cystine-induced glutamate release assay (system Xc^− [1]) | pIC50 [^14C] L-Cystine uptake assay (system Xc^− [2]) |
| --- | --- | --- | --- | --- |
| Cc1cc2c(c(Cl)n1)-c1cccnc1C(C)C(=O)N2CC(=O)Nc1ccc(Br)cc1F (single isomer, unassigned) [#227, Enantiomer (10S) or (10R) of N-(4-bromo-2-fluoro-phenyl)-2-[3-chloro-5,10-dimethyl-9-oxo-4,8,12-triazatricyclo[9.4.0.0^2,7]pentadeca-1(11),2(7),3,5,12,14-hexaen-8-yl]acetamide] | < 15.8 | 15.8 to 39.8 | – | – |
| Cc1cc2c(c(Cl)n1)-c1cccnc1C(C)C(=O)N2CC(=O)Nc1ccc(C(F)(F)F)nc1 (single isomer, unassigned) [#228, Enantiomer (10S) or (10R) of 2-[3-chloro-5,10-dimethyl-9-oxo-4,8,12-triazatricyclo[9.4.0.0^2,7]pentadeca-1(15),2,4,6,11,13-hexaen-8-yl]-N-[6-(trifluoromethyl)-3-pyridyl]acetamide] | < 15.8 | < 15.8 | – | – |
| Cc1cc2c(c(Cl)n1)-c1cccnc1C(C)C(=O)N2CC(=O)Nc1ccc(C(F)(F)F)cn1 (single isomer, unassigned) [#229, Enantiomer (10S) or (10R) of 2-[3-chloro-5,10-dimethyl-9-oxo-4,8,12-triazatricyclo[9.4.0.0^2,7]pentadeca-1(15),2,4,6,11,13-hexaen-8-yl]-N-[5-(trifluoromethyl)-2-pyridyl]acetamide] | 15.8 to 39.8 | 39.8 to 100 | – | – |
| Cc1cc2c(c(Cl)n1)-c1cccnc1C(C)C(=O)N2CC(=O)Nc1ccc(C(F)F)nc1 (single isomer, unassigned) [#230, Enantiomer (10R) or (10S) of 2-[3-chloro-5,10-dimethyl-9-oxo-4,8,12-triazatricyclo[9.4.0.0^2,7]pentadeca-1(11),2(7),3,5,12,14-hexaen-8-yl]-N-[6-(difluoromethyl)-3-pyridyl]acetamide] | 15.8 to 39.8 | 15.8 to 39.8 | – | – |
| Cc1cc2c(c(F)n1)-c1cccnc1[C@@H](C)C(=O)N2CC(=O)Nc1ccc(C(F)F)c(F)c1 (single isomer, unassigned) [#235] | < 15.8 | < 15.8 | – | – |
| Cc1cc2c(c(F)n1)-c1cccnc1[C@@H](C)C(=O)N2CC(=O)Nc1ccc(C(C)(F)F)c(F)c1 (single isomer, unassigned) [#236] | 15.8 to 39.8 | 15.8 to 39.8 | – | – |
| Cc1cc2c(c(F)n1)-c1cccnc1[C@@H](C)C(=O)N2CC(=O)Nc1ccc2cnc(F)cc2c1 (single isomer, unassigned) [#239] | 15.8 to 39.8 | 15.8 to 39.8 | – | – |
| Cc1cc2c(c(F)n1)-c1cccnc1[C@@H](C)C(=O)N2CC(=O)Nc1ccc2c(Cl)nccc2c1 (single isomer, unassigned) [#240] | 15.8 to 39.8 | 39.8 to 100 | – | – |
| Cc1cc2c(cn1)-c1cccnc1C(C)C(=O)N2CC(=O)Nc1ccc(C(F)F)cc1 (single isomer, unassigned) [#250, Enantiomer (10S) or (10R) of N-[4-(difluoromethyl)phenyl]-2-[5,10-dimethyl-9-oxo-4,8,12-triazatricyclo[9.4.0.0^2,l]pentadeca-1(15),2,4,6,11,13-hexaen-8-yl]acetamide] | – | – | C (about 7.40 < pIC50 ≤ about 7.80) | B (about 7.00 < pIC50 ≤ about 7.40) |
| Cc1cc2c(cn1)-c1cccnc1C(C)C(=O)N2CC(=O)Nc1ccc(Cl)c(F)c1 (single isomer, unassigned) [#251, N-(4-chloro-3-fluoro-phenyl)-2-[5,10-dimethyl-9-oxo-4,8,12-triazatricyclo[9.4.0.0^2,7]pentadeca-1(15),2,4,6,11,13-hexaen-8-yl]acetamide] | < 15.8 | < 15.8 | – | – |

More lines, now with the values ahead:

| IC50 (system Xc^− [1]) [nM] | IC50 (system Xc^− [2]) [nM] | pIC50 Cystine-induced glutamate release assay (system Xc^− [1]) | pIC50 [^14C] L-Cystine uptake assay (system Xc^− [2]) | Compound |
| --- | --- | --- | --- | --- |
| < 15.8 | 15.8 to 39.8 | – | – | Cc1cc2c(cn1)-c1cccnc1C(C)C(=O)N2CC(=O)Nc1ccc(C(F)F)c(F)c1 (single isomer, unassigned) [#252, N-[4-(difluoromethyl)-3-fluoro-phenyl]-2-[5,10-dimethyl-9-oxo-4,8,12-triazatricyclo[9.4.0.0^2,7]pentadeca-1(15),2,4,6,11,13-hexaen-8-yl]acetamide] |
| 39.8 to 100 | 39.8 to 100 | – | – | Cc1cc2c(cn1)-c1cccnc1C(C)C(=O)N2CC(=O)Nc1ccc(F)c(Cl)c1 (single isomer, unassigned) [#253, N-(3-chloro-4-fluoro-phenyl)-2-(5,10-dimethyl-9-oxo-4,8,12-triazatricyclo[9.4.0.0^2,7]pentadeca-1(11),2(7).3,5,12,14-hexaen-8-yl)acetamide] |
| 39.8 to 100 | 39.8 to 100 | – | – | Cc1cc2c(c(F)n1)-c1ccnnc1C(C)C(=O)N2CC(=O)Nc1ccc(C(F)F)cc1 (single isomer, unassigned) [#257, N-[4-(difluoromethyl)phenyl]-2-[3-fluoro-5,10-dimethyl-9-oxo-4,8,12,13-tetrazatricyclo[9.4.0.0^2,7]pentadeca-1(15),2,4,6,11,13-hexaen-8-yl]acetamide] |
| < 15.8 | < 15.8 | – | – | Cc1cc2c(c(Cl)n1)-c1ccnnc1C(C)C(=O)N2CC(=O)Nc1ccc(Cl)c(F)c1 (single isomer, unassigned) [#258, 2-[3-chloro-5,10-dimethyl-9-oxo-4,8,12,13-tetrazatricyclo[9.4.0.0^2,7]pentadeca-1(15),2,4,6,11,13-hexaen-8-yl]-N-(4-chloro-3-fluoro-phenyl)acetamide] |
| < 15.8 | < 15.8 | – | – | Cc1cc2c(c(F)n1)-c1cnccc1C(C)C(=O)N2CC(=O)Nc1ccc(C(F)F)cc1 (single isomer, unassigned) [#259, N-[4-(difluoromethyl)phenyl]-2-[3-fluoro-5,10-dimethyl-9-oxo-4,8,14-triazatricyclo[9.4.0.0^2,7]pentadeca-1(15),2,4,6,11,13-hexaen-8-yl]acetamide] |
| < 15.8 | < 15.8 | – | – | Cc1cc2c(c(F)n1)-c1cc(F)cnc1[C@H](C)C(=O)N2CC(=O)Nc1ccc(Cl)c(F)c1 (single isomer, unassigned) [#260] |
| < 15.8 | < 15.8 | – | – | Cc1cc2c(c(F)n1)-c1cc(F)cnc1C(C)C(=O)N2CC(=O)Nc1ccc(C(F)F)cc1 (single isomer, unassigned) [#261, N-[4-(difluoromethyl)phenyl]-2-[3,14-difluoro-5,10-dimethyl-9-oxo-4,8,12-triazatricyclo[9.4.0.0^2,7]pentadeca-1(11),2(7),3,5,12,14-hexaen-8-yl]acetamide] |
| 15.8 to 39.8 | 15.8 to 39.8 | – | – | Cc1cc2c(c(F)n1)-c1cc(F)cnc1C(C)C(=O)N2CC(=O)Nc1ccc(C(F)(F)F)nc1 (single isomer, unassigned) [#262, 2-[3,14-difluoro-5,10-dimethyl-9-oxo-4,8,12-triazatricyclo[9.4.0.0^2,7]pentadeca-1(11),2(7),3,5,12,14-hexaen-8-yl]-N-[6-(trifluoromethyl)-3-pyridyl]acetamide] |
| < 15.8 | < 15.8 | – | – | Cc1cc2c(c(F)n1)-c1cc(F)cnc1C(C)C(=O)N2CC(=O)Nc1ccc(C(C)(F)F)cc1 (single isomer, unassigned) [#263, 2-[3,14-difluoro-5,10-dimethyl-9-oxo-4,8,12-triazatricyclo[9.4.0.0^2,7]pentadeca-1(15),2,4,6,11,13-hexaen-8-yl]-N-[4-(1,1-difluoroethyl)phenyl]acetamide] |
| 15.8 to 39.8 | 15.8 to 39.8 | – | – | CC1C(=O)N(CC(=O)Nc2ccc(Cl)c(F)c2)c2cc(N(C)CCN(C)C)nc(F)c2-c2cccnc21 (single isomer, unassigned) [#266, N-(4-chloro-3-fluoro-phenyl)-2-[5-[2-(dimethylamino)ethyl-methyl-amino]-3-fluoro-10-methyl-9-oxo-4,8,12-triazatricyclo[9.4.0.0^2,7]pentadeca-1(15),2,4,6,11,13-hexaen-8-yl]acetamide] |

Reference: patent publication US20260217708A1, “FUSED BENZAZEPINE DERIVATIVES FOR USE IN THE TREATMENT OF CANCER AND EPILEPSY” (UCB BIOPHARMA SRL, priority 2023, published 2026)
